The source of these data is PubChem BioAssay (NCI).

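Compound exposure: 48 hours, 5 concentrations, 96-well plates. Abbreviation: GI50, concentration required for 50% inhibition of growth. At the TGI there is no net growth.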

Test systems include NCI-H226 lung; OVCAR-5 ovarian; HCT-15 colon; TK-10 renal; T-47D breast; HOP-92 NSCLC; SW-620 colon; CAKI-1 renal.
Common to all, as to test: NCI tumour cell line growth inhibition, 48 h

In the case of `O=C(/C=C/c1cccc(Oc2ccc(Cl)cc2)c1)c1ccccc1`, the GI50 with NCI-H226 lung is 122 µM; with OVCAR-5 ovarian it was 26.3 µM; with HCT-15 colon, 18.7 µM; in the assay with TK-10 renal, 192 µM; with T-47D breast, 46.3 µM; in the assay with HOP-92 NSCLC it was 21.8 µM. Moreover, the GI50 in the assay with SW-620 colon is 22.6 µM. The TGI turned out to be 273 µM with NCI-H226 lung; 83.6 µM in the assay with OVCAR-5 ovarian; 44.6 µM with HCT-15 colon; 342 µM with TK-10 renal; 235 µM in the assay with T-47D breast; 50.1 µM with HOP-92 NSCLC. Further, the TGI in the assay with SW-620 colon is 49.4 µM.
As to `CC1(C)N=C(N)N=C(N)N1c1ccc(OCCCCNC(=O)Nc2cccc(S(=O)(=O)F)c2)c(Cl)c1`, the GI50 in the assay on NCI-H226 lung was 7.95 µM; in the assay on OVCAR-5 ovarian, 2.26 µM; with HCT-15 colon it was 10.6 µM; in the assay with T-47D breast, 15.8 µM; in the assay on HOP-92 NSCLC it was 27.1 µM; with CAKI-1 renal, 35.4 µM. The GI50 with SW-620 colon was 0.657 µM. Also, the TGI in the assay on NCI-H226 lung, with OVCAR-5 ovarian, in the assay on HCT-15 colon, in the assay with T-47D breast, with HOP-92 NSCLC and with CAKI-1 renal was over 100 µM throughout. The TGI in the assay on SW-620 colon is over 100 µM.
Take `CN1CC[C@]23c4c5ccc(O)c4OC2c2[nH]ncc2C[C@H]3[C@H]1C5` (stereo partly drawn): the TGI with NCI-H226 lung, with OVCAR-5 ovarian, in the assay on HCT-15 colon, in the assay with TK-10 renal, in the assay with T-47D breast and in the assay on HOP-92 NSCLC was over 100 µM in each case. In addition, in the assay on CAKI-1 renal, the TGI is over 100 µM.
As to `O=[N+]([O-])c1ccc(/C=C\c2ccc3c(c2)OCO3)c([N+](=O)[O-])c1`, the TGI in the assay on OVCAR-5 ovarian is 35.5 µM; with HCT-15 colon it was 37.3 µM; in the assay with TK-10 renal it was 46.3 µM; with T-47D breast, over 100 µM; in the assay on HOP-92 NSCLC, 53.5 µM; in the assay with CAKI-1 renal, 92 µM. The same compound returned a TGI in the assay with SW-620 colon of 41.6 µM.
In the case of `CCN(CCNc1ccc(C)c2sc3cc(Cl)ccc3c(=O)c12)CC(C)(C)O`, the GI50 in the assay with NCI-H226 lung is 14 µM; with OVCAR-5 ovarian, 10.5 µM; with HCT-15 colon it was 3.3 µM; in the assay with TK-10 renal, 3.59 µM; in the assay on T-47D breast, 11.8 µM; with CAKI-1 renal, 1.51 µM. The GI50 in the assay on SW-620 colon is 3.64 µM. Also, the TGI in the assay with NCI-H226 lung amounted to 30.7 µM; in the assay on OVCAR-5 ovarian, 27.7 µM; in the assay on HCT-15 colon, 12 µM; in the assay on TK-10 renal it was 13.9 µM; with T-47D breast, 37.5 µM; with CAKI-1 renal, 4.9 µM. The compound also returned a TGI with SW-620 colon of 13.4 µM.
For `Cc1n(Cc2ccc3ccccc3n2)cc[n+]1Cc1ccc2ccccc2c1`, the GI50 is 0.965 µM in the assay on NCI-H226 lung; 1.67 µM in the assay with OVCAR-5 ovarian; 20.4 µM in the assay with HCT-15 colon; 1.94 µM in the assay on TK-10 renal; 0.371 µM in the assay on T-47D breast; 0.355 µM in the assay on HOP-92 NSCLC. Also, in the assay with SW-620 colon, the GI50 was 1.82 µM. The TGI in the assay on NCI-H226 lung was 8.36 µM; in the assay on OVCAR-5 ovarian, 13 µM; in the assay with HCT-15 colon, over 75.9 µM; with TK-10 renal, 7.96 µM; in the assay on T-47D breast, 7.22 µM; with HOP-92 NSCLC it was 3.06 µM. In the assay with SW-620 colon, this compound gave a TGI of 13.3 µM.
As to `O=C1c2ccccc2-c2c1c1ccc([N+](=O)[O-])cc1c(=O)n2CCCCl`, the GI50 is over 100 µM in the assay on OVCAR-5 ovarian; over 100 µM in the assay with HCT-15 colon; 37.8 µM in the assay with TK-10 renal; 22.9 µM in the assay with HOP-92 NSCLC; 2.45 µM in the assay with CAKI-1 renal; 3.12 µM in the assay on SW-620 colon. For the same compound, the TGI in the assay with OVCAR-5 ovarian, with HCT-15 colon, in the assay on TK-10 renal, with HOP-92 NSCLC, in the assay with CAKI-1 renal and in the assay with SW-620 colon was over 100 µM each time.
With `CCN(CC)C(=O)CCCCCn1c2ccccc2c2c3c(c4c5ccccc5[nH]c4c21)C(=O)N(O)C3=O`, the GI50 with NCI-H226 lung was 14.1 µM; in the assay on OVCAR-5 ovarian it was 31.1 µM; in the assay with HCT-15 colon, 4.07 µM; in the assay on TK-10 renal, 3.64 µM; with T-47D breast it was 4.12 µM; in the assay with HOP-92 NSCLC, 2.73 µM. Also, the GI50 with SW-620 colon was 4.29 µM. Besides, the TGI was 54.4 µM in the assay on NCI-H226 lung; over 100 µM in the assay with OVCAR-5 ovarian; over 100 µM in the assay on HCT-15 colon; 64 µM in the assay on TK-10 renal; 52.1 µM with T-47D breast; 7.68 µM with HOP-92 NSCLC. In the assay on SW-620 colon, the TGI was over 100 µM.
Take `COC(=O)c1ccc2c(c1)C(=O)c1c-2n(CCCCl)c(=O)c2cc(OC)c(OC)cc12`: the GI50 in the assay on NCI-H226 lung, in the assay on OVCAR-5 ovarian, with HCT-15 colon, in the assay on TK-10 renal, in the assay on T-47D breast and in the assay on CAKI-1 renal was over 100 µM in each case. The GI50 with SW-620 colon is over 100 µM. Also, the TGI in the assay on NCI-H226 lung, in the assay on OVCAR-5 ovarian, in the assay with HCT-15 colon, in the assay with TK-10 renal, with T-47D breast and with CAKI-1 renal was over 100 µM throughout. Also, in the assay on SW-620 colon, the TGI is over 100 µM.
Take `CC(=O)OC1COC(Oc2c(C)c3c4c(c2O)[C@@H](C)CC[C@@H]4[C@@H](C)C[C@H]3C=C(C)C)C(O)C1O` (stereo partly drawn): the GI50 is 21.8 µM in the assay on NCI-H226 lung; 18.1 µM with OVCAR-5 ovarian; 17.9 µM with HCT-15 colon; 16.3 µM in the assay on TK-10 renal; 33.2 µM with T-47D breast; 18.7 µM with HOP-92 NSCLC. Moreover, the GI50 with CAKI-1 renal is 16 µM. Further, the TGI with NCI-H226 lung is 52.3 µM; with OVCAR-5 ovarian, 37.3 µM; in the assay on HCT-15 colon it was 37.9 µM; in the assay on TK-10 renal, 31 µM; in the assay on T-47D breast, over 100 µM; in the assay on HOP-92 NSCLC, 36.3 µM. In addition, the TGI in the assay with CAKI-1 renal was determined as 30.9 µM.
As for `O=C(Nc1cccc(-n2cc(-c3ccncc3)c(-c3ccc(O)c(Cl)c3)n2)c1)Nc1ccc(Cl)c(Cl)c1`, the GI50 in the assay on NCI-H226 lung is 3.01 µM; with OVCAR-5 ovarian, 3.26 µM; in the assay with HCT-15 colon, 1.63 µM; in the assay with TK-10 renal, 2.83 µM; with T-47D breast, 1.84 µM; in the assay on HOP-92 NSCLC, 0.763 µM. For the same compound, the GI50 with SW-620 colon is 2.63 µM. For the same compound, the TGI in the assay on NCI-H226 lung amounted to 9.53 µM; in the assay on OVCAR-5 ovarian it was 55.9 µM; in the assay on HCT-15 colon it was 8.52 µM; in the assay on TK-10 renal it was 7.56 µM; with T-47D breast, 6.41 µM; with HOP-92 NSCLC, 3.38 µM. The same compound registered a TGI in the assay with SW-620 colon of 7.32 µM.
